Reference: ChEMBL document CHEMBL1158867, “Activity-guided isolation of constituents of Tephrosia purpurea with the potential to induce the phase II enzyme, quinone reductase” (J Nat Prod, 1997)

Experiments:
[1] = Chemoprevention index, ratio of IC50 for mouse Hepa-1c1c7 cells to drug level required to double quinone reductase activity in mouse Hepa-1c1c7 cells; assay type: functional
[2] = Cytotoxicity against mouse Hepa-1c1c7 cells assessed as cell survival after 2 days by MTT assay; assay type: functional, cell-based; conditions: Hepa-1c1c7, 48 h

Compound | Ratio [1] | IC50 [2] [µM]
COc1c(O)ccc2c1OC[C@H]1c3cc4c(cc3O[C@@H]21)OCO4 | >4.4 | > 63.7
Oc1ccc2c(c1)OC[C@H]1c3cc4c(cc3O[C@@H]21)OCO4 [MAACKIAIN] | >8 | > 70.4
O=c1cc(-c2ccccc2)oc2c1ccc1occc12 [LANCEOLATIN B] | >3.3 | > 76.3
COc1c(C(=O)/C=C(\O)c2ccccc2)ccc2occc12 [PONGAMOL] | 3.1 | 18.7
COc1cc(-c2coc3cc(O)ccc3c2=O)cc(OC)c1O | >3.7 | > 63.7
COc1ccc2c(c1)O[C@H]1c3ccc(O)cc3OC[C@@H]21 | >5.4 | > 74
C[S+]([O-])CCCCN=C=S (stereo not drawn) [SULFORAPHANE] | 25 | 11
COc1cc2c(c3c1C(=O)C[C@@H](c1ccccc1)O3)[C@H]1[C@@H](O2)OC(C)(C)[C@@H]1OC(C)=O | >9 | > 50.7
COc1cc2c(c(O)c1C(=O)/C=C/c1ccccc1)[C@H]1[C@@H](O2)OC(C)(C)[C@@H]1OC(C)=O [TEPHROPURPURIN] | 89 | 13.4
